The source of these data is ChEMBL document CHEMBL1152005, “Design, synthesis and X-ray crystallographic studies of novel FKBP-12 ligands” (Bioorg Med Chem Lett, 1995).

One assay can be described thus: Compound was evaluated for its ability to inhibit the rotamase activity of FKBP-12. The note with it: read-out: Ki app.
As to `Cc1cccc(C)c1OC12CCCC(CC(=O)C1)C2` (stereo not given), the Ki is 461 µM.
On to `O=C1CC2CCCC(Oc3cccc(O)c3)(C1)C2` (stereo not given), for which the Ki is 16.7 µM.
The same measure, in the same setting: with `COc1cccc(OC23CCCC(CC(=O)C2)C3)c1` (stereo not given) the figure was 92.1 µM; with `Cc1ccccc1OC12CCCC(CC(=O)C1)C2` (stereo not given), 120 µM; with `O=C1CC2CCCC(Oc3ccccc3)(C1)C2` (stereo not given), 116 µM.
Consider `O=C1CC2CCCC(Sc3ccccc3)(C1)C2` (stereo not given), for which the Ki was determined as 9.2 µM.
The same measure, in the same setting: the value for `O=C1CC2CCCC(S(=O)(=O)c3ccccc3)(C1)C2` (stereo not given) was 48.5 µM; that for `O=C1CC2CCCC(OCc3ccccc3)(C1)C2` (stereo not given) was 85.8 µM.
With `CN(c1ccccc1)C12CCCC(CC(=O)C1)C2` (stereo not given), the Ki came out at 165 µM.

A short description of the next assay: Compound was evaluated for its ability to inhibit the rotamase activity of FKBP-12; no inhibition.
Conditions: not given; call rule not given here
Consider `O=C1CC2CCCC(O)(C1)C2` (stereo not given), for which the Ki app entry is recorded as “Not Active”.
